Source: patent publication US20040180031A1, “Skin conditioner” (Kabushiki Kaisha Soken, priority 1999, published 2004)

Key:
[1] = system: normal human skin fibroblasts; assay: Collagen production recovery test on damaged fibroblasts (Test Example 1); assay type: cell-based; settings: 3H-proline uptake into collagen; sample final concentration 3.3%; 24 hours at 37° C.; hypoxanthine/xanthine oxidase damage; FIG. 1
Method: A collagen production recovery test was conducted on damaged fibroblasts. Six to eight subcultures of normal human skin fibroblasts (Physicochemical Research Institute, Cell Development Bank NBIRGB) were used in the test. […] Measurement of collagen production ability of a confluent in the steady state was performed according to the method of Webster et al. based on the uptake of ^3H-proline into the produced collagen. […] Since proline is a main component of the amino acids that compose collagen, fibroblasts are cultured in a medium containing ^3H-proline, and the ^3H activity taken up into collagen in the cells is measured. Units are in d.p.m., and represent the number of […] of radioactivity released per minute.

[2] = system: persons with atopic skin; assay: 2-hour moisture retention duration test on atopic skin (Test Example 9); assay type: in vivo, human
Method: A 2-hour moisture retention duration test was performed on atopic skin.

[3] = system: persons with atopic skin; assay: Moisture retention ability test on atopic skin, ammonium samples (Test Example 18); assay type: in vivo, human; settings: FIG. 54
Method: A moisture retention ability test was performed on atopic skin. Test Method: Same as Test Example 3 Measurement Method: Same as Text Example 3 Test Apparatus: Same as Test Example 3

[4] = system: volunteers with chapped skin; assay: Moisture retention duration test on persons with chapped skin, ammonium samples (Test Example 17); assay type: in vivo, human
Method: A moisture retention duration test was conducted on persons with chapped skin.
Test Method: Same as Test Example 2
Measurement Method: Same as Text Example 2
Test Apparatus: Same as Test Example 2

N=C(N)NCCC[C@H](N)C(=O)O [L-arginine]
collagen production ability of fibroblasts damaged by active oxygen [1]: significantly improved | moisture retention duration / continuation of moisture retention [2]: observed

N [ammonium ions]
moisture retention ability [3]: can be observed | moisture retention duration [4]: can be observed

NCCO [ethanolamine]
collagen production ability of fibroblasts damaged by active oxygen [1]: significantly improved | moisture retention duration / continuation of moisture retention [2]: observed
